Publication PMC11555678, “Improved Broad Spectrum Antifungal Drug Synergies with Cryptomycin, a Cdc50-Inspired Antifungal Peptide” (ACS Infectious Diseases, 2024)
In brackets after ≈: the same amount, converted by molar mass. Read-outs that look alike come from different tables or passages of the source. Square brackets hold non-standard residues; d marks the D form. Peptide text beside a SMILES is read from it. * marks the point of attachment. Myristoyl = CCCCCCCCCCCCCC(=O)*; Orn = NCCC[C@H](N)C(=O)O

Columns and labels:
[1] = tested on: C. neoformans Crm1^OE; assay: microbe, parasite or virus in culture; format: cell-based, Cryptococcus neoformans; conditions: 48 h
Method: (§1) All microdilution assays with fungi were carried out in accordance with CLSI protocols from M27 for yeasts and M38 for filamentous fungi, respectively, unless otherwise specified.[64],[65] Briefly, 96-well plates were charged with RPMI1640 media, with operating volume in the first column, 200 μL, and half operating volume, 100 μL, in the remaining wells. Drug stock solution in DMSO was aliquoted into the first well in each row. Half of the volume in the dosed well was serially diluted 2-fold until column 11. Column 11 was used as the negative growth control, and column 12 was used as the positive growth control. ON yeast cultures in YPD were washed twice in DD-H2O, resuspended in PBS, and adjusted to 5000 cfu/mL in RPMI. The 96-well plate was inoculated with 100 μL aliquots of cell suspension per well. Plates were incubated at 37 °C for 2 days.

[2] = tested on: C. neoformans H99; assay: microbe, parasite or virus in culture; format: cell-based, Cryptococcus neoformans
Method: as §1

[3] = tested on: C. neoformans MRL862; assay: microbe, parasite or virus in culture; format: cell-based, Cryptococcus neoformans
Method: as §1

[4] = tested on: C. neoformans apt1Δ; assay: microbe, parasite or virus in culture; format: cell-based, Cryptococcus neoformans; conditions: 48 h
Method: as §1

[5] = tested on: C. neoformans apt2Δ; assay: microbe, parasite or virus in culture; format: cell-based, Cryptococcus neoformans; conditions: 48 h
Method: as §1

[6] = tested on: C. neoformans apt3Δ; assay: microbe, parasite or virus in culture; format: cell-based, Cryptococcus neoformans; conditions: 48 h
Method: as §1

[7] = tested on: C. neoformans apt4Δ; assay: microbe, parasite or virus in culture; format: cell-based, Cryptococcus neoformans; conditions: 48 h
Method: as §1

[8] = tested on: C. neoformans cdc50Δ; assay: microbe, parasite or virus in culture; format: cell-based, Cryptococcus neoformans; conditions: for MIC: 48 h
Method: as §1

[9] = tested on: C. neoformans crm1Δ; assay: microbe, parasite or virus in culture; format: cell-based, Cryptococcus neoformans; conditions: 48 h
Method: as §1

[10] = tested on: C. albicans SC5413; assay: microbe, parasite or virus in culture; format: cell-based, Candida albicans
Method: as §1

[11] = tested on: Cn H99; assay: microbe, parasite or virus in culture; format: cell-based, Cryptococcus neoformans; conditions: for MIC: 37 °C, 48 h
Method: (§2) Previous studies have shown that modifying microbiological media with salts such as CaCl2 can have a drastic effect on the growth of fungi and their responses to antifungals.[19],[35] In the case of CaCl2, the divalent cation, Ca^2+, is involved in fungal cell stress response. To understand how the peptide activity may involve calcium and stress response, the MICs of KKOO, KKOO-NH2, FLC, and CAS were assessed as a function of the calcium concentration in liquid YPD media. It was observed that calcium enrichment completely desensitized the wild-type strain to KKOO and KKOO-NH2, Tables 7 and 8, respectively. Effects of calcium enrichment on the susceptibility of Cryptococcus to CAS similar to literature values were recorded, Supporting Information, Table S7.[35]
(§3) In order to control for the effects of enriching YPD with a divalent cation, MICs and ROS production were also measured as a function of the MgCl2 supplement at the same millimolar concentrations of cation as in the CaCl2-modified experiments. […] No peptide susceptibility changes were observed against Cn cdc50Δ in magnesium-enriched media, Table S9. ROS production in H99 induced by peptide exposure was inhibited after 30 min of treatment in the magnesium-enriched condition, similar to the levels observed in the calcium-enriched media at 16 μg/mL KKOO-NH2, Figure S1. […] The link between peptide activity and calcium homeostasis may be vital in understanding precisely how the peptide kills fungal cells and requires more research to elucidate.
as §1

[12] = tested on: Cn cdc50Δ; assay: microbe, parasite or virus in culture; format: cell-based, Cryptococcus neoformans; conditions: for MIC: 37 °C, 48 h
Method: as §2, §3, §1

[13] = tested on: A. fumigatus AF293; assay: Drug synergy (MIC in peptide-supplemented media); format: cell-based, Aspergillus fumigatus; conditions: RPMI1640, 37 °C, 48 h, CAS: paradoxical growth; for MIC of antifungal in combination with KKOO: MIC = <20% growth; for MIC of antifungal in combination with KKOO-NH2: MIC = well with <20% growth
Method: as §1
To assess drug synergy, the initial media charged to the plate contained the peptide at twice the final operating concentration; the remaining processing steps were identical to the MIC experiment. Upon addition of 100 μL of inoculant, the final operating concentration was achieved. Control MIC plates were prepared alongside drug synergy plates to account for the day-to-day variability in any individual MIC. FIC index is computed using eq 1. All MIC assays and drug synergy assays were completed with two technical replicates per 96-well plate and a minimum of two biological replicates per drug combination. If a difference in MIC between the two technical replicates on the plate were observed, only the higher concentration was reported as the MIC to reduce the possibility of type 1 error (false positive) [drawing 1] 1

[14] = compound alone, RPMI1640, 37 °C
[15] = Table S1, unit and conditions not given (MICs elsewhere in μg/mL)
[16] = Candida albicans, SC5413, compound alone, RPMI1640, 37 °C, 48 h, read-out: MIC

## CCCCCCCCCCCCCC(=O)N[C@@H](Cc1c[nH]c2ccccc12)C(=O)NCC(=O)NCC(=O)N[C@H](C(=O)N[C@@H](CCCN)C(=O)N[C@@H](CCCN)C(=O)N[C@@H](CC(N)=O)C(=O)N[C@@H](Cc1ccc(O)cc1)C(=O)N[C@@H](C)C(N)=O)[C@@H](C)CC [KKOO-NH2] (Myristoyl-WGGI[Orn][Orn]NYA-NH2)
[1]; [14]
  MIC: 4 µg/mL (≈ 3.29 µM)
[2]; H99, 48 h
  MIC: 8 µg/mL (≈ 6.57 µM)
[2]; [15]
  MIC (SAR screen peptides): 8
[3]; MRL862, 48 h
  MIC: 8 µg/mL (≈ 6.57 µM)
[4]; [14]
  MIC: 4 µg/mL (≈ 3.29 µM)
[5]; [14]
  MIC: 4 µg/mL (≈ 3.29 µM)
[6]; [14]
  MIC: 4 µg/mL (≈ 3.29 µM)
[7]; [14]
  MIC: 4 µg/mL (≈ 3.29 µM)
[8]; [15]
  MIC (SAR screen peptides): 4
[8]; [14]
  MIC: 4 µg/mL (≈ 3.29 µM)
[9]; [14]
  MIC: 4 µg/mL (≈ 3.29 µM)
[10]; SC5413, 48 h
  MIC: 16 µg/mL (≈ 13.1 µM)
[10]; [15]
  MIC (SAR screen peptides): 16
[11]; YPD + 0 mM Ca2+
  MIC: 8 µg/mL
[11]; YPD + 0 mM Mg2+
  MIC: 8 µg/mL
[11]; YPD +0 to +2.5 mM CaCl2
  increase of MIC: 16 fold
[11]; YPD +0 to +20 mM MgCl2
  increase of MIC: 4 fold
[11]; YPD + 2.5 mM Ca2+
  MIC: 128 µg/mL
[11]; YPD + 2.5 mM Mg2+
  MIC: 8 µg/mL
[11]; YPD + 5 mM Ca2+
  MIC: >128 µg/mL
[11]; YPD + 5 mM Mg2+
  MIC: 16 µg/mL
[11]; YPD + 10 mM Ca2+
  MIC: >128 µg/mL
[11]; YPD + 10 mM Mg2+
  MIC: 16 µg/mL
[11]; YPD + 20 mM Ca2+
  MIC: >128 µg/mL
[11]; YPD + 20 mM Mg2+
  MIC: 32 µg/mL
[12]; YPD + 0 mM Ca2+
  MIC: 2 µg/mL
[12]; YPD + 0 mM Mg2+, unit inferred
  MIC: 4 µg/mL
[12]; YPD +0 to +5 mM CaCl2
  increase of MIC (largest deviation): 4 fold
[12]; YPD + 2.5 mM Ca2+
  MIC: 4 µg/mL
[12]; YPD + 2.5 mM Mg2+, unit inferred
  MIC: 4 µg/mL
[12]; YPD + 5 mM Ca2+
  MIC: 8 µg/mL
[12]; YPD + 5 mM Mg2+, unit inferred
  MIC: 4 µg/mL
[12]; YPD + 10 mM Ca2+
  MIC: 8 µg/mL
[12]; YPD + 10 mM Mg2+, unit inferred
  MIC: 4 µg/mL
[12]; YPD + 20 mM Ca2+
  MIC: 4 µg/mL
[12]; YPD + 20 mM Mg2+, unit inferred
  MIC: 4 µg/mL

## C[C@@H]1[C@H](O)[C@@H](C)/C=C/C=C/C=C/C=C/C=C/C=C/C=C/[C@H](O[C@@H]2O[C@H](C)[C@@H](O)[C@H](N)[C@@H]2O)C[C@@H]2O[C@](O)(C[C@@H](O)C[C@@H](O)[C@H](O)CC[C@@H](O)C[C@@H](O)CC(=O)O[C@H]1C)C[C@H](O)[C@H]2C(=O)O [AMB, amphotericin B]
[1]; Cryptococcus neoformans
  MIC: 0.5 µg/mL (≈ 0.541 µM)
[2]; Cryptococcus neoformans, H99, compound alone, RPMI1640, 37 °C, 48 h, read-out: MIC
  MIC: 0.5 µg/mL (≈ 0.541 µM)
[3]; Cryptococcus neoformans, MRL862, 48 h
  MIC: 0.125 µg/mL (≈ 0.135 µM)
[4]; Cryptococcus neoformans
  MIC: 0.5 µg/mL (≈ 0.541 µM)
[5]; Cryptococcus neoformans
  MIC: 0.25 µg/mL (≈ 0.271 µM)
[6]; Cryptococcus neoformans
  MIC: 0.5 µg/mL (≈ 0.541 µM)
[7]; Cryptococcus neoformans
  MIC: 0.25 µg/mL (≈ 0.271 µM)
[8]; Cryptococcus neoformans
  MIC: 0.5 µg/mL (≈ 0.541 µM)
[9]; Cryptococcus neoformans
  MIC: 0.5 µg/mL (≈ 0.541 µM)
[10]; [16]
  MIC: 1 µg/mL (≈ 1.08 µM)
[13]; +0 μg/mL KKOO (control)
  MIC of antifungal in combination with KKOO: 1 µg/mL
[13]; +0 μg/mL KKOO-NH2 (control)
  MIC of antifungal in combination with KKOO-NH2: 1 µg/mL
[13]; +1 μg/mL KKOO-NH2
  MIC of antifungal in combination with KKOO-NH2: 0.5 µg/mL
[13]; +1 μg/mL KKOO
  MIC of antifungal in combination with KKOO: 0.25 µg/mL
[13]; +2 μg/mL KKOO-NH2
  MIC of antifungal in combination with KKOO-NH2: 0.25 µg/mL
[13]; +2 μg/mL KKOO
  MIC of antifungal in combination with KKOO: 0.25 µg/mL
[13]; +4 μg/mL KKOO-NH2
  MIC of antifungal in combination with KKOO-NH2: 0.5 µg/mL
[13]; +4 μg/mL KKOO
  MIC of antifungal in combination with KKOO: 0.25 µg/mL
[13]; +8 μg/mL KKOO-NH2
  MIC of antifungal in combination with KKOO-NH2: 0.5 µg/mL

## CCC(C)n1ncn(-c2ccc(N3CCN(c4ccc(OCC5COC(Cn6cncn6)(c6ccc(Cl)cc6Cl)O5)cc4)CC3)cc2)c1=O (centres unmarked) [ITR, itraconazole]
[1]; Cryptococcus neoformans
  MIC: 0.016 µg/mL (≈ 0.0227 µM)
[2]; Cryptococcus neoformans, H99, 48 h
  MIC: 0.125 µg/mL (≈ 0.177 µM)
[3]; Cryptococcus neoformans, MRL862, compound alone, RPMI1640, 37 °C, 48 h, read-out: MIC
  MIC: 0.031 µg/mL (≈ 0.0439 µM)
[4]; Cryptococcus neoformans
  MIC: 0.5 µg/mL (≈ 0.709 µM)
[5]; Cryptococcus neoformans
  MIC: 0.125 µg/mL (≈ 0.177 µM)
[6]; Cryptococcus neoformans
  MIC: 0.062 µg/mL (≈ 0.0879 µM)
[7]; Cryptococcus neoformans
  MIC: 0.062 µg/mL (≈ 0.0879 µM)
[8]; Cryptococcus neoformans
  MIC: 0.002 µg/mL (≈ 0.00283 µM)
[9]; Cryptococcus neoformans
  MIC: 0.062 µg/mL (≈ 0.0879 µM)
[10]; [16]
  MIC: > 1 µg/mL
[13]; +0 μg/mL KKOO (control)
  MIC of antifungal in combination with KKOO: 0.125 µg/mL
[13]; +0 μg/mL KKOO-NH2 (control)
  MIC of antifungal in combination with KKOO-NH2: 0.125 µg/mL
[13]; +1 μg/mL KKOO-NH2
  MIC of antifungal in combination with KKOO-NH2: 0.125 µg/mL
[13]; +1 μg/mL KKOO
  MIC of antifungal in combination with KKOO: 0.125 µg/mL
[13]; +2 μg/mL KKOO-NH2
  MIC of antifungal in combination with KKOO-NH2: 0.062 µg/mL
[13]; +2 μg/mL KKOO
  MIC of antifungal in combination with KKOO: 0.062 µg/mL
[13]; +4 μg/mL KKOO-NH2
  MIC of antifungal in combination with KKOO-NH2: 0.062 µg/mL
[13]; +4 μg/mL KKOO
  MIC of antifungal in combination with KKOO: 0.062 µg/mL
[13]; +8 μg/mL KKOO-NH2
  MIC of antifungal in combination with KKOO-NH2: 0.031 µg/mL
